Tested on: MV-4-11 cells
Assay: Gene expression microarray analysis (Affymetrix PrimeView) and GSEA
Format: cell-based, human
Set-up: RFU PODN (11730768_x_at) / Fold change /veh PODN (11730768_x_at) / RFU LINC00158 (11744669_a_at) / Fold change /veh LINC00158 (11744669_a_at) / RFU DUSP10 (11751237_a_at) / Fold change /veh DUSP10 (11751237_a_at) / RFU ID3 (11757404_x_at) / Fold change /veh ID3 (11757404_x_at) / RFU PLEKHG5 (11737974_s_at) / Fold change /veh PLEKHG5 (11737974_s_at) / RFU LRRC4B (11730491_at) / Fold change /veh LRRC4B (11730491_at) / RFU GIMAP4 (11747438_a_at) / Fold change /veh GIMAP4 (11747438_a_at) / RFU KRT8 (11758183_x_at) / Fold change /veh KRT8 (11758183_x_at) / RFU CNN1 (11734310_a_at) / Fold change /veh CNN1 (11734310_a_at) / RFU VPS37D (11726825_at) / Fold change /veh VPS37D (11726825_at) / RFU C10orf10 (11716522_x_at) / Fold change /veh C10orf10 (11716522_x_at) / RFU KIR2DL2 /// KIR2DL4 /// KIR2DL5A /// KIR2DL5B /// KIR2DS1 /// KIR2DS2 /// KIR2DS3 /// KIR2DS4 /// KIR3DL3 /// KIR3DL3 /// KIR3DS1 (11738374_at) / Fold change /veh KIR2DL2 /// KIR2DL4 /// KIR2DL5A /// KIR2DL5B /// KIR2DS1 /// KIR2DS2 /// KIR2DS3 /// KIR2DS4 /// KIR3DL3 /// KIR3DL3 /// KIR3DS1 (11738374_at) / RFU C1QL1 (11718748_at) / Fold change /veh C1QL1 (11718748_at) / RFU TMPRSS4 (11747572_a_at) / Fold change /veh TMPRSS4 (11747572_a_at) / RFU HAMP (11756126_x_at) / Fold change /veh HAMP (11756126_x_at) / RFU RNFT2 (11725882_a_at) / Fold change /veh RNFT2 (11725882_a_at) / RFU NR4A2 (11747474_a_at) / Fold change /veh NR4A2 (11747474_a_at) / RFU ABCC12 (11746883_a_at) / Fold change /veh ABCC12 (11746883_a_at) / RFU TMEM136 (11760407_x_at) / Fold change /veh TMEM136 (11760407_x_at) / RFU CLDN22 /// WWC2 (11732394_at) / Fold change /veh CLDN22 /// WWC2 (11732394_at) / RFU HLA-DPB1 (11760878_x_at) / Fold change /veh HLA-DPB1 (11760878_x_at) / RFU SPINT1 (11716480_a_at) / Fold change /veh SPINT1 (11716480_a_at) / RFU GAP43 (11754022_s_at) / Fold change /veh GAP43 (11754022_s_at) / RFU A4GNT (11735810_at) / Fold change /veh A4GNT (11735810_at) / RFU PRB3 (11715151_x_at) / Fold change /veh PRB3 (11715151_x_at) / RFU TUBB4B (11761932_at) / Fold change /veh TUBB4B (11761932_at) / RFU CAPN14 (11732068_a_at) / Fold change /veh CAPN14 (11732068_a_at) / RFU TMCC2 (11721928_a_at) / Fold change /veh TMCC2 (11721928_a_at) / RFU IRGQ (11745062_a_at) / Fold change /veh IRGQ (11745062_a_at) / RFU FAM174B (11720279_a_at) / Fold change /veh FAM174B (11720279_a_at) / RFU TMPRSS4 (11748680_a_at) / Fold change /veh TMPRSS4 (11748680_a_at) / RFU FAM212B (11763350_a_at) / Fold change /veh FAM212B (11763350_a_at) / RFU PLEKHG5 (11743358_a_at) / Fold change /veh PLEKHG5 (11743358_a_at) / RFU ZSCAN30 (11745921_a_at) / Fold change /veh ZSCAN30 (11745921_a_at) / RFU CMKLR1 (11741424_a_at) / Fold change /veh CMKLR1 (11741424_a_at) / RFU LOC101060620 /// MAPK8IP1 (11723275_at) / Fold change /veh LOC101060620 /// MAPK8IP1 (11723275_at) / RFU SPTSSB (11747773_x_at) / Fold change /veh SPTSSB (11747773_x_at) / RFU PRSS12 (11739890_at) / Fold change /veh PRSS12 (11739890_at) / RFU BIN1 (11741810_x_at) / Fold change /veh BIN1 (11741810_x_at) / RFU WNT11 (11732464_a_at) / Fold change /veh WNT11 (11732464_a_at) / RFU C10orf10 (11716521_a_at) / Fold change /veh C10orf10 (11716521_a_at) / RFU C5orf56 (11738089_at) / Fold change /veh C5orf56 (11738089_at) / RFU CYB561 (11721691_x_at) / Fold change /veh CYB561 (11721691_x_at) / RFU ANKRD19P (11752326_a_at) / Fold change /veh ANKRD19P (11752326_a_at) / RFU OR2T12 /// OR2T33 /// OR2T8 (11738714_s_at) / Fold change /veh OR2T12 /// OR2T33 /// OR2T8 (11738714_s_at) / RFU VCAN (11748164_a_at) / Fold change /veh VCAN (11748164_a_at) / RFU JSRP1 (11732532_at) / Fold change /veh JSRP1 (11732532_at) / RFU KRTAP10-11 (11738290_x_at) / Fold change /veh KRTAP10-11 (11738290_x_at) / RFU MYO3A (11730013_a_at) / Fold change /veh MYO3A (11730013_a_at) / RFU EBF3 (11725865_a_at) / Fold change /veh EBF3 (11725865_a_at) / RFU CAMK2N1 (11719241_x_at) / Fold change /veh CAMK2N1 (11719241_x_at) / RFU C5orf56 (11738088_a_at) / Fold change /veh C5orf56 (11738088_a_at) / RFU OLFML3 (11715873_a_at) / Fold change /veh OLFML3 (11715873_a_at) / RFU LOC100653217 /// NTM (11731650_a_at) / Fold change /veh LOC100653217 /// NTM (11731650_a_at) / RFU MAPK11 (11762145_a_at) / Fold change /veh MAPK11 (11762145_a_at) / RFU FIZ1 (11724087_x_at) / Fold change /veh FIZ1 (11724087_x_at) / RFU OASL (11726364_x_at) / Fold change /veh OASL (11726364_x_at) / RFU SOX15 (11748057_x_at) / Fold change /veh SOX15 (11748057_x_at) / RFU CD79A (11719716_a_at) / Fold change /veh CD79A (11719716_a_at) / RFU HIST1H1D (11736915_at) / Fold change /veh HIST1H1D (11736915_at) / RFU CASKIN2 (11723855_a_at) / Fold change /veh CASKIN2 (11723855_a_at) / RFU LOC730098 (11760151_x_at) / Fold change /veh LOC730098 (11760151_x_at) / RFU OR4N2 (11742367_at) / Fold change /veh OR4N2 (11742367_at) / RFU PRRT2 (11749266_a_at) / Fold change /veh PRRT2 (11749266_a_at) / RFU SNX32 (11753110_a_at) / Fold change /veh SNX32 (11753110_a_at) / RFU CDHR5 (11726645_a_at) / Fold change /veh CDHR5 (11726645_a_at) / RFU RCAN1 (11760418_a_at) / Fold change /veh RCAN1 (11760418_a_at) / RFU FAM167A (11723789_a_at) / Fold change /veh FAM167A (11723789_a_at) / RFU FAM26E (11764081_at) / Fold change /veh FAM26E (11764081_at) / RFU ISYNA1 (11749810_s_at) / Fold change /veh ISYNA1 (11749810_s_at) / RFU ACY1 (11761880_at) / Fold change /veh ACY1 (11761880_at) / RFU 11764098_at / Fold change /veh 11764098_at / RFU SAMD14 (11745864_x_at) / Fold change /veh SAMD14 (11745864_x_at) / RFU NPB (11741838_a_at) / Fold change /veh NPB (11741838_a_at) / RFU TMPRSS6 (11731388_a_at) / Fold change /veh TMPRSS6 (11731388_a_at) / RFU KRTAP10-2 (11738614_at) / Fold change /veh KRTAP10-2 (11738614_at) / RFU ARHGAP8 /// PRR5-ARHGAP8 (11727945_x_at) / Fold change /veh ARHGAP8 /// PRR5-ARHGAP8 (11727945_x_at) / RFU KRTAP5-7 /// NADSYN1 (11734609_at) / Fold change /veh KRTAP5-7 /// NADSYN1 (11734609_at) / RFU RASL12 (11751679_a_at) / Fold change /veh RASL12 (11751679_a_at) / RFU CDKN2B (11736163_a_at) / Fold change /veh CDKN2B (11736163_a_at) / RFU PRF1 (11729649_at) / Fold change /veh PRF1 (11729649_at) / RFU, ZNF638 /// ZNF638-IT1 / Fold change vs veh, ZNF638 /// ZNF638-IT1 / RFU, PANK3 / Fold change vs veh, PANK3 / RFU, SH3YL1 / Fold change vs veh, SH3YL1 / RFU, ZEB2 / Fold change vs veh, ZEB2 / RFU, NRIP1 / Fold change vs veh, NRIP1 / RFU, PTTG1IP / Fold change vs veh, PTTG1IP / RFU, CAPN2 / Fold change vs veh, CAPN2 / RFU, MED14 / Fold change vs veh, MED14 / RFU, SNORA58 / Fold change vs veh, SNORA58 / RFU, C1orf63 / Fold change vs veh, C1orf63 / RFU, LRRFIP1 / Fold change vs veh, LRRFIP1 / RFU, NDUFAF7 / Fold change vs veh, NDUFAF7 / RFU, SLC12A2 / Fold change vs veh, SLC12A2 / RFU, IBTK / Fold change vs veh, IBTK / RFU, ESF1 / Fold change vs veh, ESF1 / Fold change vs veh, TMEM50B / RFU, TAOK1 / Fold change vs veh, TAOK1 / RFU, ACBD3 / Fold change vs veh, ACBD3 / RFU, TMA16 / Fold change vs veh, TMA16 / RFU, RWDD3 / Fold change vs veh, RWDD3 / RFU, BCAT1 / Fold change vs veh, BCAT1 / RFU, EDEM3 / Fold change vs veh, EDEM3 / RFU, TMEM33 / Fold change vs veh, TMEM33 / RFU, WDR75 / Fold change vs veh, WDR75 / RFU, AHCTF1 / Fold change vs veh, AHCTF1 / RFU, TFRC / Fold change vs veh, TFRC / RFU, ZDHHC17 / Fold change vs veh, ZDHHC17 / RFU, NOM1 / Fold change vs veh, NOM1 / RFU, ARL8B / Fold change vs veh, ARL8B / RFU, ZBTB11 / Fold change vs veh, ZBTB11 / RFU, TAMM41 / Fold change vs veh, TAMM41 / RFU, KIAA1704 /// LOC100996395 / Fold change vs veh, KIAA1704 /// LOC100996395 / RFU, ING1 / Fold change vs veh, ING1 / RFU, TRMT61B / Fold change vs veh, TRMT61B / RFU, FUBP3 / Fold change vs veh, FUBP3 / RFU, TP53 / Fold change vs veh, TP53 / RFU, TNKS2 / Fold change vs veh, TNKS2 / RFU, ZFP14 / Fold change vs veh, ZFP14 / RFU, ACTR2 / Fold change vs veh, ACTR2 / RFU, PPP3R1 / Fold change vs veh, PPP3R1 / RFU, PIK3R1 / Fold change vs veh, PIK3R1 / RFU, HNRNPA1 / Fold change vs veh, HNRNPA1 / RFU, RNF170 / Fold change vs veh, RNF170 / RFU, ZNF28 / Fold change vs veh, ZNF28 / RFU, RNGTT / Fold change vs veh, RNGTT / RFU, OGT / Fold change vs veh, OGT / RFU, BRD1 / Fold change vs veh, BRD1 / RFU, MARS / Fold change vs veh, MARS / RFU, ZNF655 / Fold change vs veh, ZNF655 / RFU, FAHD1 / Fold change vs veh, FAHD1 / RFU, BDP1 / Fold change vs veh, BDP1 / RFU, LRRCC1 / Fold change vs veh, LRRCC1 / RFU, ARID1A / Fold change vs veh, ARID1A / RFU, ZNF146 / Fold change vs veh, ZNF146 / RFU, ZNF330 / Fold change vs veh, ZNF330 / RFU, GPN3 / Fold change vs veh, GPN3 / RFU, C9orf123 / Fold change vs veh, C9orf123 / RFU, N4BP2L2 / Fold change vs veh, N4BP2L2 / RFU, ARFIP1 / Fold change vs veh, ARFIP1 / RFU, FAM179B / Fold change vs veh, FAM179B / RFU, BCL10 / Fold change vs veh, BCL10 / RFU, UHRF1BP1L / Fold change vs veh, UHRF1BP1L / RFU, BET1 / Fold change vs veh, BET1 / RFU, CNOT2 / Fold change vs veh, CNOT2 / RFU, ZNF268 / Fold change vs veh, ZNF268 / Fold change vs veh, ZNF507 / RFU, DGCR2 / Fold change vs veh, DGCR2 / RFU, WDSUB1 / Fold change vs veh, WDSUB1 / Fold change vs veh, HSP90B1 /// MIR3652 / RFU, ADSS / Fold change vs veh, ADSS / RFU, GK / Fold change vs veh, GK / RFU, ZNF148 / Fold change vs veh, ZNF148 / RFU, TAF9 / Fold change vs veh, TAF9 / RFU, SLC1A5 / Fold change vs veh, SLC1A5 / RFU, SLMO2 / Fold change vs veh, SLMO2 / RFU, ABCC4 / Fold change vs veh, ABCC4 / RFU, LOC101060439 /// RAP1B / Fold change vs veh, LOC101060439 /// RAP1B / RFU, RFX7 / Fold change vs veh, RFX7 / RFU, GTPBP10 / Fold change vs veh, GTPBP10 / RFU, CNEP1R1 / Fold change vs veh, CNEP1R1 / RFU, BIVM-ERCC5 /// ERCC5 / Fold change vs veh, BIVM-ERCC5 /// ERCC5 / RFU, ILF3 / Fold change vs veh, ILF3 / RFU 11762660_at / Fold change /veh 11762660_at / RFU VCAN (11757783_s_at) / Fold change /veh VCAN (11757783_s_at) / RFU DDX43 (11728927_at) / Fold change /veh DDX43 (11728927_at) / RFU KRT8 (11758188_x_at) / Fold change /veh KRT8 (11758188_x_at) / RFU NKD1 (11759106_at) / Fold change /veh NKD1 (11759106_at) / RFU SRD5A1 (11742802_a_at) / Fold change /veh SRD5A1 (11742802_a_at) / RFU TPSAB1 /// TPSB2 (11721975_s_at) / Fold change /veh TPSAB1 /// TPSB2 (11721975_s_at) / RFU GSTM3 (11746129_a_at) / Fold change /veh GSTM3 (11746129_a_at) / RFU IL23R (11737362_x_at) / Fold change /veh IL23R (11737362_x_at) / RFU TMEM51 (11727254_a_at) / Fold change /veh TMEM51 (11727254_a_at) / RFU PIWIL2 (11732686_x_at) / Fold change /veh PIWIL2 (11732686_x_at) / RFU ORM1 (11744905_x_at) / Fold change /veh ORM1 (11744905_x_at) / RFU CCDC152 (11743942_at) / Fold change /veh CCDC152 (11743942_at) / RFU ECM1 (11717891_a_at) / Fold change /veh ECM1 (11717891_a_at) / RFU IL23R (11748794_a_at) / Fold change /veh IL23R (11748794_a_at) / RFU TNFAIP8L3 (11732012_x_at) / Fold change /veh TNFAIP8L3 (11732012_x_at) / RFU MBOAT4 (11741988_at) / Fold change /veh MBOAT4 (11741988_at) / RFU 11764193_at / Fold change /veh 11764193_at / RFU TMEM53 (11763286_at) / Fold change /veh TMEM53 (11763286_at) / RFU MAGEB2 (11727129_at) / Fold change /veh MAGEB2 (11727129_at) / RFU TMEM200A (11744735_a_at) / Fold change /veh TMEM200A (11744735_a_at) / RFU CCDC152 (11751479_a_at) / Fold change /veh CCDC152 (11751479_a_at) / RFU FAM211A (11726209_a_at) / Fold change /veh FAM211A (11726209_a_at) / RFU RGS16 (11746705_a_at) / Fold change /veh RGS16 (11746705_a_at) / RFU VCAN (11755009_s_at) / Fold change /veh VCAN (11755009_s_at) / RFU RHOB (11743442_s_at) / Fold change /veh RHOB (11743442_s_at) / RFU RGS16 (11720943_a_at) / Fold change /veh RGS16 (11720943_a_at) / RFU RGS16 (11720944_at) / Fold change /veh RGS16 (11720944_at) / RFU, VPS4B / Fold change vs veh, VPS4B / RFU, CREB1 / Fold change vs veh, CREB1 / RFU, DNAJC13 / Fold change vs veh, DNAJC13 / RFU, GNAQ / Fold change vs veh, GNAQ / RFU, CDK5R1 / Fold change vs veh, CDK5R1 / RFU, ZRANB3 / Fold change vs veh, ZRANB3 / RFU, CUL4A / Fold change vs veh, CUL4A / RFU, CCNY / Fold change vs veh, CCNY / RFU, UFL1 / Fold change vs veh, UFL1 / RFU, COG3 / Fold change vs veh, COG3 / RFU, DIAPH2 / Fold change vs veh, DIAPH2 / RFU, SKA2 / Fold change vs veh, SKA2 / RFU, AFF3 / Fold change vs veh, AFF3 / RFU, LMF1 / Fold change vs veh, LMF1 / RFU, IPO11 / Fold change vs veh, IPO11 / RFU, DFFB / Fold change vs veh, DFFB / RFU, FOXP1 / Fold change vs veh, FOXP1 / RFU, CARD8 / Fold change vs veh, CARD8 / RFU, STRN3 / Fold change vs veh, STRN3 / RFU, ADK / Fold change vs veh, ADK / RFU, RASSF2 / Fold change vs veh, RASSF2 / RFU, WIPF1 / Fold change vs veh, WIPF1 / RFU, LARP1B / Fold change vs veh, LARP1B / RFU, RASA1 / Fold change vs veh, RASA1 / RFU, RB1 / Fold change vs veh, RB1 / RFU, PPFIA1 / Fold change vs veh, PPFIA1 / RFU, MAT2A / Fold change vs veh, MAT2A / RFU, CCT5 / Fold change vs veh, CCT5 / RFU, WDR92 / Fold change vs veh, WDR92 / RFU, CUX1 / Fold change vs veh, CUX1 / RFU, TTC7A / Fold change vs veh, TTC7A / RFU, TMEM135 / Fold change vs veh, TMEM135 / RFU, DEPTOR / Fold change vs veh, DEPTOR / RFU, CPM / Fold change vs veh, CPM / RFU, DNAJB6 / Fold change vs veh, DNAJB6 / RFU, CACNA2D3 / Fold change vs veh, CACNA2D3 / RFU, DTX4 / Fold change vs veh, DTX4 / RFU, TFCP2 / Fold change vs veh, TFCP2 / RFU, GMCL1 /// GMCL1P1 / Fold change vs veh, GMCL1 /// GMCL1P1 / RFU, AEBP2 / Fold change vs veh, AEBP2 / RFU, SNHG1 /// SNORD22 /// SNORD25 /// SNORD26 /// SNORD27 /// SNORD28 /// SNORD29 /// SNORD31 / Fold change vs veh, SNHG1 /// SNORD22 /// SNORD25 /// SNORD26 /// SNORD27 /// SNORD28 /// SNORD29 /// SNORD31 / Fold change (Aza/veh), C12orf56 (ProbeSet 11735607_a_at) / Fold change (ACY-1035/veh), C12orf56 (ProbeSet 11735607_a_at) / Fold change (Aza/veh), FGFR1OP (ProbeSet 11751329_s_at) / Fold change (ACY-1035/veh), FGFR1OP (ProbeSet 11751329_s_at) / Fold change (Aza/veh), VPS36 (ProbeSet 11739960_a_at) / Fold change (ACY-1035/veh), VPS36 (ProbeSet 11739960_a_at) / RFU SYPL1 (11715823_x_at) / Fold change /veh SYPL1 (11715823_x_at) / RFU IGFBP7 (11715501_s_at) / Fold change /veh IGFBP7 (11715501_s_at) / RFU REEP3 (11722064_at) / Fold change /veh REEP3 (11722064_at) / RFU IGLL1 (11728026_x_at) / Fold change /veh IGLL1 (11728026_x_at): dose or concentration left out as unconfirmed
Conditions: MV-4-11 cells, 48 hours

SMILES: Nc1ncn([C@@H]2O[C@H](CO)[C@@H](O)[C@H]2O)c(=O)n1 [azacitidine]
- Fold change /veh DUSP10 (11751237_a_at): 1.16

Source: paper PMC5218480 (PLoS ONE, 2017)
